Experimental findings from publication PMC11546719, “Immune Modulatory Profile of the Pateamines PatA and Des-Methyl Des-Amino PatA” (International Journal of Molecular Sciences, 2024) are described below.

Data set [1] is described as follows: Transport assay, porous membrane without cell barrier. The settings on record: 100 nM; for Transport rate without a cell barrier: apical to basolateral. It is filed as in vitro ADME.
Data set [2] concerns B cells, T cells, M1 MdMs, M2 MdMs. In words: Immune cell viability, formazan-based assay. More on the design: species or system human. Particulars: 48 h. Here is the method: nitrogen, and the residue dissolved in 50 µl methanol. The analysis was performed with an Agilent 1290 Inﬁnity LC system (Agilent, Waldbronn, Germany) coupled to a hybrid triple quadrupole linear ion trap mass spectrometer QTRAP 6500+ (Sciex, Darmstadt, Ger-many) equipped with a Turbo-V-source operating in positive electrospray ionization mode. The chromatographic separation was carried out using an Acquity UPLC BEH C18 column (100x 2.1 mm, 1.7 µm; Waters, Eschborn, Deutschland), maintained at 40 °C. Mobile Phase A was 0.1% formic acid with 20 mM ammonium formate and mobile Phase B was meth-anol with 0.1% formic acid with 20 mM ammonium formate. A gradient program was em-ployed at a flow rate of 400 µl/min, as follows: initial 20% B to 0.5 min, increasing to 90% B from 0.5 to 4.5 min, with a hold time of 1.0 min. Re-equilibration was performed by reducing to 20% B from 5.5 to 5.6 min, and then holding at 20% B until 7.0 min.
For analysis and quantiﬁcation of all compounds, Analyst Software 1.7.1 and Multi-quant Software 3.0.3 (both Sciex, Darmstadt, Germany) were used. The precursor-to-prod-uct ion transitions used for quantiﬁcation were: m/z 237.1 → m/z 194.1 for carbamazepine, […]
482.2 for DMDA, and […]. […]
Supplementary Figure S1. […] Viability was determined by a formazan-based assay. […]

The subject of another data set is Calu-3 cell barrier. In words: Transport assay, Calu-3 cell barrier. Particulars: for Permeability / transport rate across Calu-3 cell barrier (in words): 4 and 24 h, PatA, DMDA 5, 50, 100 nM, controls 200 µM. It counts as in vitro ADME. Here is the method: The transport assay was achieved as described previously. Briefly, 1 × 10^5 CaCo-2 or 5 × 10^4 Calu-3 cells in 300 µL medium were seeded on 24-well ThinCerts (pre-coated with FCS for 60 min) and in the lower compartment, 1 mL culture medium per well was added. The Caco-2 cell barrier was generated over 20 days and the Calu-3 barrier was generated over 14 days. DMDA (0 nM, 5 nM, 50 nM, 100 nM), PatA (0 nM, 5 nM, 50 nM, 100 nM), 200 µM famotidine, 200 µM lucifer yellow or 200 µM carbamazepine diluted in medium was added to the apical compartment and incubated for 4 h or 24 h. The medium from the basolateral and apical compartment was collected and stored at −20 °C and analyzed using LC-MS/MS. To obtain the transport rate, the drug amount in the basolateral compartment at 4 h or 24 h was related to the drug amount in the apical compartment (0 h).
The detailed method for the analysis of DMDA, PatA, carbamazepine and famotidine using LC-MS/MS is described in the Supplementary Materials.

The next data set relates to T cells. The data set can be described thus: Energy metabolism (Seahorse OCR/ECAR) in T cells. It counts as cell-based, human. Particulars: 5 days, PatA, DMDA 0.25-0.5 nM, silvestrol 5 nM. The procedure:
(§1) The determination of the energy metabolism was performed as described previously. Briefly, for the analysis of the extracellular acidification rate (ECAR) and the oxygen consumption rate (OCR) for human B cells, Tcells, M1 MdMs and M2 MdMs, the Seahorse XFe96 FluxPak (Agilent, Waldbronn, Germany) was used as recommended by the manufacturer. MdMs were polarized to M1 or M2 MdMs in the presence of PatA (0.5, 2.5, 5 nM), DMDA (0.5, 2.5, 5 nM) or vehicle (DMSO) for 48 h or 24 h, respectively. T cells were activated in the presence of PatA (0.25, 0.5 nM), DMDA (0.25, 0.5 nM), silvestrol or DMSO. B cells were activated in the presence of PatA (0.25, 0.5 nM), DMDA (0.25, 0.5 nM), silvestrol (5 nM) or rapamycin (10 ng/mL positive control). Cells were washed with Seahorse XF RPMI medium pH 7.4 (Agilent, Waldbronn, Germany) and OCR and ECAR were measured as octuplicates for a period of 160 min using the Seahorse XFe96 Analyzer (Agilent, Waldbronn, Germany) and analyzed by Wave Software 2.6.3.8 (Agilent, Waldbronn, Germany). The relative values were calculated by relating the OCR or ECAR values obtained after 50 min to the values of the vehicle control (not stimulated).

For data set [3], the system named is Salmonella typhimurium strain TA100. In words: Ames MPF test, strain TA100. It counts as cell-based. Particulars: TA100, with and without S9, 10-250 nM. The procedure: (§2) The Ames MPF 98/100 test (Xenometrix, Allschwil, Switzerland) was performed as recommended by the supplier and recently published. Briefly, two bacteria strains incapable of producing histidine (Salmonella typhimurium strains TA98 and TA100) were used. Liver homogenate S9 was applied to simulate the metabolic conversions of PatA and DMDA. After exposure to increasing concentrations of PatA (0, 10, 50, 250 nM), DMDA (0, 10, 50, 250 nM) or with positive controls (2 μg/mL for 2-NF (TA98), 2.5 μg/mL for 4-NQO (TA100), 63 μg/mL (TA100 with SF9) and 25 µg/mL (TA98 with SF9) for 2-AA), the cultures were diluted in pH indicator medium lacking histidine and incubated for two days. Cells that had undergone reversion to amino acid prototrophy grew into colonies and bacterial metabolism reduced the pH of the medium, changing the color of that well. Revertant colony numbers of each well were counted and related to the negative control (DMSO). The experiment was conducted once in triplicate. The Ames MPF calculation sheet provided by Xenometrix was used for data analysis. Fold induction over the baseline was calculated as the ratio of the mean number of positive wells to the baseline. The baseline was obtained by adding one standard deviation to the mean number of positive wells of the solvent control. Compounds with mutagenic potential were characterized by revertant numbers above the baseline.
(The Ames test uses bacterial strains that need an amino acid and regain growth without it when mutated back.)

A further data set concerns M1 MdMs. The data set can be described thus: Energy metabolism (Seahorse OCR/ECAR) in M1 MdMs. It is filed as cell-based, human. Particulars: 48 h, 0.5-5 nM. Here is the method:
as §1

In data set [4] the test system is Salmonella typhimurium strain TA98. The data set can be described thus: Ames MPF test, strain TA98. It is filed as cell-based. Particulars: TA98, with and without S9, 10-250 nM. Here is the method:
as §2

Regarding `CC(/C=C/C(C)=C/[C@@H]1Cc2nc(cs2)CCCCC(=O)O[C@@H](C)C/C(C)=C/C=C\C(=O)O1)=C\CN(C)C` [DMDA, des-methyl des-amino pateamine A], the “Transport rate without a cell barrier” value in data set [1] (4 h) was “about 28%”; in data set [1] (24 h), approximately 41%. Further, the “Cytotoxicity in immune cell types” value in data set [2] is reported as “less cytotoxic in comparison with PatA”. Moreover, in the data set on Calu-3 cell barrier (100 nM, 24 h), the “Transport rate with Calu-3 cell barrier” value is given as approximately 14%. In addition, the “Permeability / transport rate across Calu-3 cell barrier (in words)” value in the data set on Calu-3 cell barrier is “exhibited low permeability”. Further, the figures for the “Energy metabolism: glycolysis (ECAR) and oxidative phosphorylation (OCR)” value in the data set on T cells and in the data set with M1 MdMs were “did not alter the energy metabolism” and “had no effect on energy consumption”, respectively. The “Mutagenic potential (Ames test)” value in data set [3] and in data set [4] was “negative in all Ames mutagenic assays” in each case.
Regarding `CC(/C=C/C(C)=C/[C@@H]1Cc2nc(cs2)[C@@H](C)C[C@@H](N)CC(=O)O[C@@H](C)C/C(C)=C/C=C\C(=O)O1)=C\CN(C)C` [PatA, pateamine A], the “Transport rate without a cell barrier” value in data set [1] (4 h) is listed as “about 28%”. The “Stability in the media under transport assay conditions” value in data set [1] (inferred from transport without cell barrier) was “probably unstable in the media”. Further, the “Permeability / transport rate across Calu-3 cell barrier (in words)” value with Calu-3 cell barrier was “no permeability was detected”. For the same compound, the “Energy metabolism: glycolysis (ECAR) and oxidative phosphorylation (OCR)” value was “did not alter the energy metabolism” in the data set on T cells; “reduced glycolysis and oxidative phosphorylation” with M1 MdMs. Besides, the “Mutagenic potential (Ames test)” value in data set [3] and in data set [4] was “negative in all Ames mutagenic assays” throughout.
